The values below are quoted from earlier work in patent US20050074494A1, “Itraconazole immediate release formulation” (priority 2003, published 2005).

`CCC(C)n1ncn(-c2ccc(N3CCN(c4ccc(OCC5COC(Cn6cncn6)(c6ccc(Cl)cc6Cl)O5)cc4)CC3)cc2)c1=O` (stereo not drawn) [Itraconazole, 4-[4-[4-[4-[[2-(2,4-dichlorophenyl)-2-(1H-1,2,4-triazol-1-ylmethyl)-1,3-dioxolan-4-yl]methoxy]phenyl]-1-piperazinyl]phenyl]-2,4-dihydro-2-(1-methylpropyl)-3H-1,2,4-triazol-3-one]: the solubility in alcohols result (alcohols) is reported as “very slightly soluble”. For the setting “dichloromethane”, the solubility in dichloromethane entry was “freely soluble”. The solubility in water entry (water) is recorded as “insoluble”.
